Experimental data reported in the supplement of paper PMC4862054.

Tested on: SK-BR-3
Assay: drug sensitivity score (DSS), CellTiter-Glo (DSS (AUC-based score)); higher = stronger drug effect (viability inhibition or cytotoxicity); extreme values may be limits of the assay
Details: incubation time: 72 h
Procedure, shortened: (§1)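 The drug sensitivity score was computed from the area under the fitted dose-response curve. Breast cancer cell lines in 20 µl suspension went into 384-well plates holding compound at 5 concentrations (10-fold steps over a 10,000-fold, compound-specific range) for 72 h of incubation. CellTox Green fluorescence (485/520 nm) was read before CellTiter-Glo luminescence, the latter after 10 min at room temperature, and each plate was normalised to 0.1 % DMSO and a positive kill control.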

Row | SMILES | drug sensitivity score
1 | C[C@@H]1CCN(C(=O)CC#N)C[C@@H]1N(C)c1ncnc2[nH]ccc12 [Tofacitinib] | 0
2 | Nc1nccc(-c2c(-c3ccc(F)cc3)ncn2C2CCCCC2)n1 | 0
3 | CCOc1cc2ncc(C#N)c(Nc3ccc(OCc4ccccn4)c(Cl)c3)c2cc1NC(=O)/C=C/CN(C)C [Neratinib] | 24.8
4 | C[C@@]1(C(=O)Nc2ccc(F)nc2)CCCN1c1nc(Nc2cc(C3CC3)n[nH]2)c2cccn2n1 | 6.12
5 | C#Cc1cccc(Nc2ncnc3cc(OC)c(OCCCCCCC(=O)NO)cc23)c1 [CUDC-101] | 14.6
6 | COc1ncc(-c2ccc3nccc(-c4ccnnc4)c3c2)cc1NS(=O)(=O)c1ccc(F)cc1F | 20.6
7 | Cn1c(=O)c(F)c(Nc2ccc(I)cc2F)c2c(=O)n(C[C@@H](O)CO)cnc21 [TAK-733] | 0
8 | COC1=CC(c2cc3ccccc3[nH]2)=N/C1=C\c1[nH]c(C)cc1C [Obatoclax] | 1.08
9 | CS(=O)(=O)OCCCCOS(C)(=O)=O [Busulfan] | 0
10 | COc1cccc2c1C(=O)c1c(O)c3c(c(O)c1C2=O)C[C@@](O)(C(C)=O)C[C@@H]3O[C@H]1C[C@H](N)[C@H](O)[C@H](C)O1 [Daunorubicin] | 6.15
11 | FC(F)c1nc2ccccc2n1-c1nc(N2CCOCC2)nc(N2CCOCC2)n1 [ZSTK474] | 15.3
12 | CN1CCN(c2ccc3nc(-c4c(N)c5c(F)cccc5[nH]c4=O)[nH]c3c2)CC1 [Dovitinib] | 0

Tested on: BT-474
Assay: drug sensitivity score (DSS), CellTox Green (DSS (AUC-based score)); higher = stronger drug effect (viability inhibition or cytotoxicity); extreme values may be limits of the assay
Details: incubation time: 72 h
Procedure, shortened: as §1

Row | SMILES | drug sensitivity score
13 | C[C@@H]1C=C2C(=O)O[C@@H]3CC[C@H](C1)[C@]23O [Galiellalactone] | 0
14 | C[C@@H]1CCN(C(=O)CC#N)C[C@@H]1N(C)c1ncnc2[nH]ccc12 [Tofacitinib] | 0
15 | Nc1nccc(-c2c(-c3ccc(F)cc3)ncn2C2CCCCC2)n1 | 0
16 | CCOc1cc2ncc(C#N)c(Nc3ccc(OCc4ccccn4)c(Cl)c3)c2cc1NC(=O)/C=C/CN(C)C [Neratinib] | 4.09
17 | C[C@@]1(C(=O)Nc2ccc(F)nc2)CCCN1c1nc(Nc2cc(C3CC3)n[nH]2)c2cccn2n1 | 0
18 | C#Cc1cccc(Nc2ncnc3cc(OC)c(OCCCCCCC(=O)NO)cc23)c1 [CUDC-101] | 6.29
19 | COc1ncc(-c2ccc3nccc(-c4ccnnc4)c3c2)cc1NS(=O)(=O)c1ccc(F)cc1F | 6.83
20 | Cn1c(=O)c(F)c(Nc2ccc(I)cc2F)c2c(=O)n(C[C@@H](O)CO)cnc21 [TAK-733] | 0
21 | COC1=CC(c2cc3ccccc3[nH]2)=N/C1=C\c1[nH]c(C)cc1C [Obatoclax] | 0
22 | CS(=O)(=O)OCCCCOS(C)(=O)=O [Busulfan] | 0
23 | COc1cccc2c1C(=O)c1c(O)c3c(c(O)c1C2=O)C[C@@](O)(C(C)=O)C[C@@H]3O[C@H]1C[C@H](N)[C@H](O)[C@H](C)O1 [Daunorubicin] | 0
24 | FC(F)c1nc2ccccc2n1-c1nc(N2CCOCC2)nc(N2CCOCC2)n1 [ZSTK474] | 0.64
25 | CN1CCN(c2ccc3nc(-c4c(N)c5c(F)cccc5[nH]c4=O)[nH]c3c2)CC1 [Dovitinib] | 0

Tested on: BT-549
Assay: as above
Details: incubation time: 72 h
Procedure, shortened: as §1

Row | SMILES | drug sensitivity score
26 | C[C@@H]1C=C2C(=O)O[C@@H]3CC[C@H](C1)[C@]23O [Galiellalactone] | 0
27 | C[C@@H]1CCN(C(=O)CC#N)C[C@@H]1N(C)c1ncnc2[nH]ccc12 [Tofacitinib] | 0
28 | Nc1nccc(-c2c(-c3ccc(F)cc3)ncn2C2CCCCC2)n1 | 0
29 | CCOc1cc2ncc(C#N)c(Nc3ccc(OCc4ccccn4)c(Cl)c3)c2cc1NC(=O)/C=C/CN(C)C [Neratinib] | 0
30 | C[C@@]1(C(=O)Nc2ccc(F)nc2)CCCN1c1nc(Nc2cc(C3CC3)n[nH]2)c2cccn2n1 | 0
31 | C#Cc1cccc(Nc2ncnc3cc(OC)c(OCCCCCCC(=O)NO)cc23)c1 [CUDC-101] | 0
32 | COc1ncc(-c2ccc3nccc(-c4ccnnc4)c3c2)cc1NS(=O)(=O)c1ccc(F)cc1F | 0
33 | Cn1c(=O)c(F)c(Nc2ccc(I)cc2F)c2c(=O)n(C[C@@H](O)CO)cnc21 [TAK-733] | 0
34 | COC1=CC(c2cc3ccccc3[nH]2)=N/C1=C\c1[nH]c(C)cc1C [Obatoclax] | 0
35 | CS(=O)(=O)OCCCCOS(C)(=O)=O [Busulfan] | 0
36 | COc1cccc2c1C(=O)c1c(O)c3c(c(O)c1C2=O)C[C@@](O)(C(C)=O)C[C@@H]3O[C@H]1C[C@H](N)[C@H](O)[C@H](C)O1 [Daunorubicin] | 0
37 | FC(F)c1nc2ccccc2n1-c1nc(N2CCOCC2)nc(N2CCOCC2)n1 [ZSTK474] | 0
38 | CN1CCN(c2ccc3nc(-c4c(N)c5c(F)cccc5[nH]c4=O)[nH]c3c2)CC1 [Dovitinib] | 0

Tested on: CAL-120
Assay: as above
Details: incubation time: 72 h
Procedure, shortened: as §1

Row | SMILES | drug sensitivity score
39 | C[C@@H]1C=C2C(=O)O[C@@H]3CC[C@H](C1)[C@]23O [Galiellalactone] | 0
40 | C[C@@H]1CCN(C(=O)CC#N)C[C@@H]1N(C)c1ncnc2[nH]ccc12 [Tofacitinib] | 0
41 | Nc1nccc(-c2c(-c3ccc(F)cc3)ncn2C2CCCCC2)n1 | 0
42 | CCOc1cc2ncc(C#N)c(Nc3ccc(OCc4ccccn4)c(Cl)c3)c2cc1NC(=O)/C=C/CN(C)C [Neratinib] | 0
43 | C[C@@]1(C(=O)Nc2ccc(F)nc2)CCCN1c1nc(Nc2cc(C3CC3)n[nH]2)c2cccn2n1 | 3.17
44 | C#Cc1cccc(Nc2ncnc3cc(OC)c(OCCCCCCC(=O)NO)cc23)c1 [CUDC-101] | 3.78
